Counter-ions that a name gives are not always drawn.
Target: 5HT2B receptor (Homo sapiens, UniProt P41595)
Assay: not given
Settings: 5HT2B receptor antagonists, Table 1; cited from earlier work

5HT2B receptor, sequence (P41595 whole entry): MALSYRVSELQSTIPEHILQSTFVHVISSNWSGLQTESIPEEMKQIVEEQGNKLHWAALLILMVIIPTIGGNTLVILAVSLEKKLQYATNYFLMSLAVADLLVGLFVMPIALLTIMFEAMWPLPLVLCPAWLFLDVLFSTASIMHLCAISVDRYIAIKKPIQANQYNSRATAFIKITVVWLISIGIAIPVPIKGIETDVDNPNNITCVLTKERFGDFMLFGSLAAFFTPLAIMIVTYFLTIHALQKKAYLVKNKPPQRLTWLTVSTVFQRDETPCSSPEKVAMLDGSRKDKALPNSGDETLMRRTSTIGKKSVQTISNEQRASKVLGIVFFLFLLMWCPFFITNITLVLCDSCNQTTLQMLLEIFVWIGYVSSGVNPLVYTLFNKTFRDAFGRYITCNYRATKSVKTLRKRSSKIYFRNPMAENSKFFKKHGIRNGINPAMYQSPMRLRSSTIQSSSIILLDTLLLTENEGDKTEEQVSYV

Compound | Affinity
CN1CCC2CN3CCc4cccc(c43)C2C1 (single isomer, unassigned; (+)) [SDZ SER-082, (+)-cis-4,5,7a,8,9,10,11,11a-octahydro-7H-10-methylindolo[1,7-bc][2,6]-naphthyridine] | 6.7 pKi
Cc1cc([N+](=O)[O-])c(N2CCN(Cc3ccccc3)CC2)cc1N [EGIS-7625, 1-benzyl-4-[(2-nitro-4-methyl-5-amino)-phenyl]-piperazine] | 9.0 pKi
CC(O)C(C)OC(=O)C1CC2c3cccc4[nH]cc(c34)CC2N(C)C1 (stereo not drawn) [LY86057] | 7.9 pKi
OC(c1ccccc1)C1CCN(CCc2ccccc2)CC1 (stereo not drawn) [MDL-11,939, α-phenyl-1-(2-phenylethyl)-4-piperidinemethanol] | 5.5 pKi
COc1cc(OC)c(C(=O)CCCCN2CCC3(CC2)NC(=O)NC3=O)cc1NS(=O)(=O)c1ccc(C(F)(F)F)cc1 [RS-102221] | 6.0-6.1 pKi
CC(C)c1cc(-c2ccc(F)c3ccccc23)nc(N)n1 [RS-127445-190] | 9.5 pKi
Cn1ccc2cc(NC(=O)Nc3cccnc3)ccc21 [SB 200646, N-(1-Methyl-1H-indol-5-yl)-N′-3-pyridinylurea] | 7.4 pKi
Cn1ccc2cc3c(cc21)CCN3C(=O)Nc1cccnc1 [SB 206553, 5-methyl-1-(3-pyridylcarbamoyl)-1,2,3,5-tetrahydrolpyrrolo[2,3-f]indole] | 7.6-8.5 pKi
Cc1cc2c(cc1Cl)N(C(=O)Nc1cccc3ncccc13)CC2 [SB 215505, 6-chloro-5-methyl-1-(5-quinolylcarbamoyl)indoline] | 8.3 pKi
CSc1cc2c(cc1C(F)(F)F)N(C(=O)Nc1cccnc1)CC2 [SB 221284, 5-(methylthio)-1-(3-pyridylcarbamoyl-6-trifluoromethyl)indoline] | 8.6 pKi
Cc1nc(-c2ccc(-c3ccc(C(=O)N4CCc5cc6c(cc54)C4(CCN(C)CC4)CO6)cc3)c(C)c2)no1 [SB 224289, 1′-methyl-5-[[2′-methyl-4′-(5-methyl-1,2,4-oxadiazol-3-yl)biphenyl-4-yl]carbonyl]-2,3,6,7-tetrahydrospiro[furo[2,3-f]indole-3,4′-piperidine hydrochloride] | 5.9 pKi
COc1cc2c(cc1C(F)(F)F)N(C(=O)Nc1cc(F)cc(-c3cccnc3)c1)CC2 [SB 228357, 1-5[-fluoro-3-(3-pyridyl)phenyl-carbamoyl]-5-methoxy-6-trifuoromethylindoline] | 8.0-8.1 pKi
COc1ccc2cccc(CCNC(C)=O)c2c1 [agomelatine, N-[2-(7-methoxynaphthalen-1-yl)ethyl]acetamide] | 6.6 pKi
CC(C)n1cc2c3c(cccc31)[C@H]1CC(C(=O)NC3CCCCC3)CN(C)[C@@H]1C2 (stereo partly drawn) [amesergide, N-Cyclohexyl-1-isopropyl-6-methylergoline-8-carboxamide] | 8.0 pKi
CN1CCc2cccc3c2C1Cc1ccc(O)c(O)c1-3 (stereo not drawn) [apomorphine, 5,6,6a,7-Tetrahydro-6-methyl-4H-dibenzo[de,g]quinolin-10,11-diol] | 6.9 pKi
CC(C)C[C@H]1C(=O)N2CCC[C@H]2[C@]2(O)O[C@](NC(=O)[C@@H]3C=C4c5cccc6[nH]c(Br)c(c56)C[C@H]4N(C)C3)(C(C)C)C(=O)N12 [bromocriptine] | 7.3 pKi
NCCC(Oc1ccc(C(F)(F)F)cc1)c1ccccc1 (stereo not drawn) [norfluoxetine] | 5.3 pKi
CCCCN1CCC(CNC(=O)c2c3n(c4ccccc24)CCCO3)CC1 [piboserod, N-((1-Butyl-4-piperidyl)-methyl)-3,4-dihydro-2H-(1,3)oxazino(3,2-a)-indole-10-carboxamide] | 6.6 pKi
c1cnc(N2CCN(Cc3ccc4c(c3)OCO4)CC2)nc1 [piribedil, 2-[4-(1,3-benzodioxol-5-ylmethyl)piperazin-1-yl]pyrimidine] | 5.9 pKi
Cc1nc2sccn2c(=O)c1CCN1CCC(=C(c2ccc(F)cc2)c2ccc(F)cc2)CC1 [ritanserin, 4-[2-[4-[bis(4-fluorophenyl)methylidene]-1-piperidyl]ethyl]-3-methyl-9-thia-2,6-diazabicyclo[4.3.0]nona-1,3,7-trien-5-one] | 8.7-9.2 pKi
Oc1ccc2[nH]cc(CCCCN3CC=C(c4ccccc4)CC3)c2c1 [roxindole, 3-[4-(4-phenyl-3,6-dihydro-2H-pyridin-1-yl)butyl]-1H-indol-5-ol] | 7.5 pKi
COc1cccc(CCc2ccccc2OCC(CN(C)C)OC(=O)CCC(=O)O)c1 (stereo not drawn) [sarpogrelate, 4-[1-dimethylamino-3-[2-[2-(3-methoxyphenyl)ethyl]phenoxy]-propan-2-yl]oxy-4-oxo-butanoic acid] | 6.6 pKi
O=C(CCCN1CCC2(CC1)C(=O)NCN2c1ccccc1)c1ccc(F)cc1 [spiperone, 8-[4-(4-fluorophenyl)-4-oxo-butyl]-1-phenyl-1,3,8-triazaspiro[4.5]decan-4-one] | 5.9-6.5 pKi
O=C1NCN(c2ccccc2)C12CCN(CC1COc3ccccc3O1)CC2 (stereo not drawn) [spiroxatrine, 8-(7,10-dioxabicyclo[4.4.0]deca-1,3,5-trien-8-ylmethyl)-4-phenyl-2,4,8-triazaspiro[4.5]decan-1-one] | 6.3-6.8 pKi
CCN(CC)C(=O)N[C@H]1C[C@@H]2c3cccc4[nH]cc(c34)C[C@H]2N(C)C1 [terguride, N,N-diethyl-N′-[(8α)-6-methylergolin-8-yl]urea] | 8.2 pKi

Same assay, conditions: cited from earlier work

Compound | Affinity
CC(O)C(C)OC(=O)[C@@H]1C[C@@H]2c3cccc4c3c(cn4C(C)C)C[C@H]2N(C)C1.O=C(O)/C=C\C(=O)O (stereo partly drawn) [LY53857, 6-Methyl-1-(1-methylethyl)ergoline-8β-carboxylic acid 2-hydroxy-1-methylpropyl ester maleate salt] | 8.2 pKi
CC(C)c1cc(-c2ccc(F)c3ccccc23)nc(N)n1 [RS-127445] | 9.0 pKi
Cc1cc2c(cc1Cl)N(C(=O)Nc1ccc(Oc3cccnc3C)nc1)CC2 [SB 242084, 6-chloro-5-methyl-1-[6-(-methylpyridin-3-yloxy)pyridin-3-ylcarbomyl]indoline] | 6.8-7.0 pKi

Tested on: antigen-induced arthritis
Assay: not given
Settings: Andersson et al. 2000; cited from earlier work

Compound | effect in the AIA model (literature)
CN(Cc1cnc2nc(N)nc(N)c2n1)c1ccc(C(=O)N[C@@H](CCC(=O)O)C(=O)O)cc1 [methotrexate] | anti-arthritic effect

Tested on: rat synoviocytes
Assay: IL-6 release from LPS-stimulated rat synoviocytes
Format: cell-based
Settings: 1 μM 5-HT + LPS 50 ng/ml; test substance 0.1, 1 or 10 μM; 72 hours; FIG. 7A
Experimental: Pannus from the inflamed knee of rats with antigen-induced arthritis (AIA) (see description of this model below; Andersson, S. E et al., (1998), J. Rheumatology 25: 1772-1777) was isolated three to five days after challenge, stored in PBS supplemented with 100 U/ml Penicillin-Streptomycin (PEST, Invitrogen Corporation) and 2.5 μg/ml Fungizone (Amphotericin B, Invitrogen) until it was further processed within a couple of hours. The PBS was discarded and the tissue cut in small pieces followed by digestion in a collagenase solution (400 U/ml; type 1 CLS-1, Worthington) for 3 hours at 37° C., 5% CO2. The suspension was filtered through a nylon mesh (70 μm), washed with tissue culture medium (RPMI-1640 with L-glutamine, Invitrogen, supplemented with 10% fetal bovine serum (FBS) and 100 U/ml PEST and 2.5 μg/ml Fungizone) and centrifuged (257 g). The cells were resuspended in tissue culture medium and seeded in cell culture flasks (T25, TPP). After overnight culture, nonadherent cells were removed by exchanging the medium, the cells were incubated at 37° C., 5% CO2, the medium was exchanged every third day until confluence was reached (7-10 days). The culture consisted of a mixed cell population with the principal constituents being fibroblasts and macrophages (Andersson, S. E. et al. (2000), Eur. J. Pharm. Sci 9: 333-343).
The cells were counted and reseeded at a density of 10000 cells/0.2 ml in 96-well cell culture plates (Nunc). After overnight culture the cells were stimulated with 50 ng/ml Lipopolysaccharide (LPS, E. coli 055:B5, Sigma) with simultaneous addition of 0.1, 1 and 10 μM N-(2-chloro-3,4-dimethoxybenzylideneamino)guanidine and 1 μM of 5-HT2 receptor agonists (triplicates). The cells were incubated for 72 hours after which the supernatants were collected and analyzed for IL-6 (OptEIA™ Set Rat IL-6). The effect of treatment on cell viability was determined using the cell proliferation reagent, WST-1 (Roche Diagnostics).
Inflamed knee joints of rats with antigen-induced arthritis (AIA) were dissected four days after intra-articular challenge with antigen. Freshly isolated pannus tissue was collected in phosphate-buffered saline (PBS) supplemented with 100 U/ml penicillin, streptomycin (PEST, Invitrogen) and 2.5 μg/ml Fungizone (Amphotericin B, Invitrogen), finely minced with a pair of scissors and digested with 400 U/ml collagenase (type 1 CLS-1, Worthington) in RPMI 1640 (Gibco) supplemented with PEST and fungizone (2.5 μg/ml) for 3 hours. The cell suspension was filtered through a 70 μm nylon mesh and the cells collected by centrifugation at 257×g, 10 min. The cells were resuspended in RPMI 1640 supplemented with 10% FBS (Gibco), PEST and fungizone (culture medium), plated in T25 flasks (TPP Cat#90026). After overnight incubation nonadherent cells were removed and the culture medium was replaced every third day until the cells approached confluency (normally achieved within 7-10 days). At near-confluency, the cells were washed with PBS and harvested by trypsination. After washing in PBS the cells were resuspended in culture medium and seeded at 10.000 cells/well/0.2 ml in 96 well plates (Nunc cat#167008). After overnight culture the culture medium was replaced with fresh medium and 50 ng/ml LPS (Sigma, L6529) together with different concentrations of 5-HT, 5-HT2 receptor agonists and/or antagonists and N-(2-chloro-3,4-dimethoxybenzylideneamino)guanidine. The cells were incubated for 72 hours after which the supernatants were collected and analyzed for IL-6 (BD OptEIA™ Set). The effect of treatment on cell viability was determined using the cell proliferation reagent, WST-1 (Roche Diagnostics). In another experiment rat synoviocytes were incubated with 50 ng/ml LPS for 2 or 22 hours were after the levels of 5-HT was analysed in the cell culture medium using a Serotonin ELISA kit (IBL International, RE59121). We also incubated rat synoviocytes with 5-HT (10 μM) and measured the gene expression of 5-HT2B and 5-HT2C.

Compound | IL-6 release induced by 5-HT and LPS
CC(C)c1cc(-c2ccc(F)c3ccccc23)nc(N)n1 [RS-127445] | clearly reduced the IL-6 release
Cc1cc2c(cc1Cl)N(C(=O)Nc1ccc(Oc3cccnc3C)nc1)CC2 [SB 242084, 6-chloro-5-methyl-1-[6-(-methylpyridin-3-yloxy)pyridin-3-ylcarbomyl]indoline] | clearly reduced the IL-6 release

Same assay, conditions: 1 μM agonist in the presence of LPS 50 ng/ml; 72 hours

Compound | IL-6 release on agonist stimulation
CC(N)Cc1c[nH]c2ccc(OCc3cccs3)cc12 (stereo not drawn) [BW 723C86] | induces a response in IL-6 production
NCCc1c[nH]c2ccc(O)cc12 [Example 5-HT, 5-Hydroxytryptamine] | clear increase in IL-6 release

Reference: patent US20120190751A1, “COMPOUNDS FOR TREATMENTS OF INFLAMMATION” (ANA-MAR AB, priority 2009, published 2012)
